Columns and labels:
[1] = tested on: SARS-CoV-2 (SARS-CoV-2/human/TWN/CGMH-CGU-01/2020); assay type: cell-based
[2] = Binding selectivity of S-protein to plain Pd-NTF electrode (EIS); settings: presence of peptide analogue
[3] = target: T1, SARS-CoV-2 S-protein-ACE2 binding (Homo sapiens, UniProt Q9BYF1, K631R); assay: EIS-based biosensing platform (ACE2-Pd-NTFE): modulation of S-protein-ACE2 binding; parameters: species or system SARS-CoV-2; human; settings: for suppression of S-protein-ACE2 interaction / maximum binding efficacy / ECmax S-protein (S-protein-ACE2 interaction at maximum S-protein concentration): 4 μg/mL ACEi; for suppression of S-protein-ACE2 interaction / maximum binding efficacy: at maximum S-protein concentration; for ECmax S-protein (S-protein-ACE2 interaction at maximum S-protein concentration): baseline 99.5%±11.0% (104.2%±4.8% for ramiprilat); for modulation effect on the S-protein-ACE2 binding: dose-dependent, 0.1 to 4 μg/mL
T1 construct: made in house

[4] = tested on: lysozyme-coated Pd-NTF electrodes; assay: Binding selectivity of S-protein to lysozyme-coated Pd-NTF electrode (EIS); settings: presence of peptide analogue
Description: (iii) lysozyme-coated Pd-electrode in the absence of peptide analogues; or […]

| Structure (SMILES) | E gene RNA in the media increased by [1] [%] | effect on binding patterns of S-protein to the bare Pd-NTF electrode [2] | suppression of S-protein-ACE2 interaction / maximum binding efficacy [3] | ECmax S-protein (S-protein-ACE2 interaction at maximum S-protein concentration) [3] [%] | modulation effect on the S-protein-ACE2 binding [3] | E gene RNA copies in the culture media reduced by [1] | effect on binding patterns of S-protein to the lysozyme-coated Pd-NTF electrode [4] | effect on S-protein-ACE2 binding at highest dose ([3]; 4 μg/mL) |
| --- | --- | --- | --- | --- | --- | --- | --- | --- |
| C[C@H](CS)C(=O)N1CCC[C@H]1C(=O)O [captopril] | 34.5 |  |  |  |  |  |  |  |
| CCOC(=O)[C@H](CCc1ccccc1)N[C@@H](C)C(=O)N1CCC[C@H]1C(=O)O [enalapril] | 93.7 |  |  |  |  |  |  |  |
| CCC[C@H](N[C@@H](C)C(=O)N1[C@H](C(=O)O)C[C@@H]2CCCC[C@@H]21)C(=O)O [perindoprilat] |  | did not change the binding patterns | 67% | 33.0±3.7 | antagonism effect is significantly enhanced | ~20.1% | did not change the binding patterns |  |
| C[C@H](N[C@@H](CCc1ccccc1)C(=O)O)C(=O)N1CCC[C@H]1C(=O)O [enalaprilat] | 44.4 |  |  |  |  |  |  |  |
| C[C@H](N[C@@H](CCc1ccccc1)C(=O)O)C(=O)N1[C@H](C(=O)O)C[C@@H]2CCC[C@@H]21 [ramiprilat] |  |  | 72% | 27.6±7.5 | antagonism effect is significantly enhanced | 36.4% |  | Near full inhibition |
| NCCCC[C@H](N[C@@H](CCc1ccccc1)C(=O)O)C(=O)N1CCC[C@H]1C(=O)O [lisinopril] | 54.2 |  |  |  |  |  | did not change the binding patterns |  |
| CCOC(=O)[C@H](CCc1ccccc1)N[C@@H](C)C(=O)N1[C@H](C(=O)O)C[C@@H]2CCC[C@@H]21 [ramipril] |  |  | approximately 42% | 57.1±11.4 | dose-dependent and non-competitive inhibition | 39.3% |  |  |
| CCC[C@H](N[C@@H](C)C(=O)N1[C@H](C(=O)O)C[C@@H]2CCCC[C@@H]21)C(=O)OCC [perindopril] |  |  | approximately 48% | 51.9±5.3 | dose-dependent and non-competitive inhibition | approximately 18.8% |  |  |

Source: patent publication US12201613B2 (priority 2020, dated 2025)
